Values joined by “and” are separate entries in the source; they are usually repeats but may differ in a detail not shown here. Identical values can stand only once.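 Five compound concentrations were applied to cells in 96-well plates for 48 hours; endpoints were derived by simple linear interpolation of the resulting dose-response curve. Abbreviation: GI50, concentration required for 50% inhibition of growth. TGI marks complete inhibition of growth.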
What was measured:
Assay in all cases: DTP human tumour cell line panel, 48 h
[1] = tested on: CCRF-CEM leukemia
[2] = tested on: SK-OV-3 ovarian
[3] = tested on: 786-0 renal
[4] = tested on: KM12 colon
[5] = tested on: UO-31 renal
[6] = tested on: RXF 393 renal
[7] = tested on: SF-268 CNS
[8] = tested on: M14 melanoma
[9] = tested on: NCI-H460 lung
[10] = tested on: IGROV1 ovarian
[11] = tested on: SK-MEL-2 melanoma
[12] = tested on: OVCAR-5 ovarian

Row | Structure (SMILES) | TGI [1] | TGI [2] | TGI [3] | TGI [4] | TGI [5] | TGI [6] | TGI [7] | TGI [8] | TGI [9] | TGI [10] | TGI [11] | TGI [12] | GI50 [8]
1 | CC[C@@H](/C=C\CCC1(C[C@@H](N)CCC=C(C)C)OCCO1)O[Si](C(C)C)(C(C)C)C(C)C | 58.7 µM | 37.8 µM | 31.8 µM | 35.3 µM | 32.3 µM | 37.3 µM | 39.9 µM | 33.6 µM | 34.9 µM | 30.6 µM | 31.7 µM | 31.1 µM | 
2 | O=S(=O)(OI(O)CC(F)(F)F)C(F)(F)F | > 100 µM | > 100 µM | > 100 µM | > 100 µM | > 100 µM | > 100 µM | > 100 µM | > 100 µM | > 100 µM | > 100 µM | > 100 µM | > 100 µM | 
3 | COc1ccc(CNC(=O)[C@H](Cc2ccc(O)cn2)NC(C)=O)cc1 | > 100 µM | > 100 µM | > 100 µM | > 100 µM | > 100 µM | > 100 µM | > 100 µM | > 100 µM | > 100 µM | > 100 µM | > 100 µM | > 100 µM | 
4 | COc1cccc2cc(C(=O)Nc3ccccn3)c(=N)oc12 | > 100 µM | > 100 µM | > 100 µM | > 100 µM | > 100 µM | > 100 µM | > 100 µM | > 100 µM | > 100 µM | > 100 µM | > 100 µM | > 100 µM | 
5 | O=C(O)C12C3CCC(O3)C1(C(=O)O)C1CCC2O1 (centres undefined) | > 100 µM | > 100 µM | > 100 µM | > 100 µM | > 100 µM | > 100 µM | > 100 µM | 29.6 µM and > 100 µM | > 100 µM | > 100 µM | > 100 µM | > 100 µM | 16.1 µM and > 100 µM
6 | COc1cc(C23OCC(Cc4cc5c(cc42)OCO5)C3CO)cc(OC)c1OC (centres undefined) | > 100 µM | > 28.8 µM | > 100 µM | > 100 µM | > 100 µM | 8.03 µM | > 100 µM | > 100 µM | > 100 µM | > 100 µM | > 100 µM | > 100 µM | 
7 | CC(=O)Oc1c2oc3cc(O)c(O)cc3c2c(OC(C)=O)c2oc3cc(O)c(O)cc3c12 | > 100 µM | 59.4 µM | > 100 µM | 44.4 µM | 42 µM | 32.6 µM | 51 µM | > 100 µM | 32.7 µM | 91.1 µM | 42.1 µM | 56.3 µM | 
8 | COc1ccccc1NC(=S)Nc1cc(C)ccn1 | > 100 µM | > 100 µM | > 100 µM | > 100 µM | > 100 µM | > 100 µM | > 100 µM | > 100 µM | > 100 µM | > 100 µM | > 100 µM | > 100 µM | 
9 | Cn1c2c3c(F)c(F)ccc3nc-2cc2ccccc21 | 28 µM | 21.1 µM | 11.8 µM | 4.76 µM | 7.52 µM | 26.9 µM | 25.4 µM | 5.41 µM | 12.6 µM | 15.9 µM | 14.1 µM | 9.07 µM | 
10 | CC1OC(O[C@H]2CC[C@]3(C=O)[C@H]4CC[C@]5(C)[C@H](C6=CC(=O)OC6)CC[C@]5(O)[C@@H]4C=C[C@]3(O)C2)CC(O)C1O (some centres undefined) | 0.82 µM | 1.02 µM | 0.296 µM | 2.76 µM | 0.546 µM | 0.193 µM | 0.589 µM | 0.761 µM | 0.423 µM | 4.5 µM | 1.14 µM | 1.42 µM | 
11 | N#Cc1c(-c2ccccc2)c(C#N)c(=O)n(C2OC(CO)C(O)C(O)C2O)c1S (centres undefined) | > 100 µM | > 100 µM | > 100 µM | > 100 µM | > 100 µM | > 100 µM | > 100 µM | > 100 µM | > 100 µM | > 100 µM | > 100 µM | > 100 µM | 
12 | NC(=O)C(Nc1ccc(Cl)cc1)c1cc2cc(Br)ccc2nc1Cl (centres undefined) | > 50 µM | > 50 µM | > 50 µM | > 50 µM | > 50 µM | > 50 µM | > 50 µM | > 50 µM | > 50 µM | > 50 µM | > 50 µM | > 50 µM | 
13 | COCCOCCOCCOc1ccc(C(C#N)N(CCc2ccccc2)C(=O)c2cc(C(=O)N(CCc3ccccc3)C(C#N)c3ccc(OCCOCCOCCOC)cc3)cc(C(=O)N(CCc3ccccc3)C(C#N)c3ccc(OCCOCCOCCOC)cc3)c2)cc1 (centres undefined) | > 100 µM | > 100 µM | > 100 µM | > 100 µM | > 100 µM | > 100 µM | > 100 µM | > 100 µM | > 100 µM | > 100 µM | > 100 µM | > 100 µM | 
14 | CCC(=O)NCCc1c2c3c(ccnc3c3ncsc13)-c1ccccc1N2 | > 100 µM | > 100 µM | > 55.4 µM | > 100 µM | > 100 µM | > 100 µM | > 100 µM | > 100 µM | 29.1 µM | > 100 µM | > 100 µM | > 100 µM | 
15 | NC(N)=NC(N)=Nc1ccccc1 (tested in a mixture with another compound) | > 100 µM | > 100 µM | > 100 µM | > 100 µM | > 100 µM | > 100 µM | > 100 µM | > 100 µM | > 100 µM | > 100 µM | > 100 µM | > 100 µM | 
16 | Cn1c(=O)oc2cc(Br)ccc21 | > 100 µM | > 100 µM | > 100 µM | > 100 µM | > 100 µM | > 100 µM | > 100 µM | > 100 µM | > 100 µM | > 100 µM | > 100 µM | > 100 µM | 
17 | Cc1ccc(C)n1-n1c(-c2ccccc2)n[nH]c1=O | > 100 µM | > 100 µM | > 100 µM | > 100 µM | > 100 µM | > 100 µM | > 100 µM | > 100 µM | > 100 µM | > 100 µM | > 100 µM | > 100 µM | 
18 | CCN(CC)CCNc1ccc(C)c2sc3ccccc3c(=O)c12 | 8.04 µM | 18.1 µM | 9.32 µM | 10.4 µM | 3 µM | 4.73 µM | 20.4 µM | 3.36 µM | 5.93 µM | 13.5 µM | 10.3 µM | 9.59 µM | 
19 | O=C(NNC(=S)NCc1ccccc1)C12CC3CC(CC(C3)C1)C2 | > 100 µM | > 100 µM | > 100 µM | > 100 µM | > 100 µM | > 100 µM | > 100 µM | > 100 µM | > 100 µM | > 100 µM | > 100 µM | > 100 µM | 

Source: PubChem BioAssay (NCI)
